How the values were obtained:
A549-DR cells = experiment: MTT cell viability assay with or without DOX; type: cell-based, human; conditions: DOX 1 μM, 72 hours, FIG. 7 upper
Description: Human lung adenocarcinoma cell line A549 was obtained from the American Type Cell Culture (ATCC, USA). Cell culture was carried out at 37° C. in an atmosphere of 5% CO2 using Dulbecco's Modified Eagle's Medium (DMEM) (SIGMA) supplemented with fetal bovine serum (at a final concentration of 10%), penicillin (at a final concentration of 100 U/mL) and streptomycin (at a final concentration of 100 μg/mL). A549 cells were cultured at 37° C. in an atmosphere of 5% CO2, in DMEM in which the DOX concentration was increased stepwise from 0.01 to 1 μM, and then cells acquiring DOX resistance were selected to generate a DOX-resistant A549 cell line (A549-DR). The resultant A549-DR cells maintained their drug resistance by exposure to 1 μM DOX.
A549-DS, A549-DR, and A549-DR-IL-34-KO cells were cultured in DMEM medium with or without DOX (at a final concentration of 1 μM). After 72 hours of culturing, an MTT assay was performed (using a cell proliferation determination kit, available from Roche Applied) to determine the viability of cells. Similarly, A549-DR cells were cultured in a medium with or without DOX in which an anti-IL-34 neutralizing antibody was added at a final concentration of 0.01 to 10 μg/mL, and the viability of cells was determined in a similar way.

A549-DR tumor = experiment: Tumor size in humanized NOG mice with DOX administration; type: in vivo; conditions: DOX 10 mg/kg/mouse intravenously, twice a week, 4 times, vs PBS, FIG. 8
A549-DR-IL-34-KO cells = experiment: MTT cell viability assay with or without DOX; type: cell-based, human; conditions: DOX 1 μM, 72 hours, FIG. 7 upper
A549-DR-IL-34-KO tumor = experiment: Tumor size in humanized NOG mice with DOX administration; type: in vivo; conditions: DOX 10 mg/kg/mouse intravenously, twice a week, 4 times, vs PBS, FIG. 8

`COc1cccc2c1C(=O)c1c(O)c3c(c(O)c1C2=O)C[C@@](O)(C(=O)CO)C[C@@H]3O[C@H]1C[C@H](N)[C@H](O)[C@H](C)O1` [DOX, doxorubicin] was tested, and the viability of cells (A549-DR cells) was “did not have a decreased viability”, the tumor size (A549-DR tumor) was “did not change greatly” and the “viability of cells (sensitivity to DOX)” value (A549-DR-IL-34-KO cells) was “restored the sensitivity to DOX”. For the same compound, the tumor size (A549-DR-IL-34-KO tumor) was “significantly decreased”.

Reference: US20180193453A1, “TREATMENT-RESISTANCE REDUCING AGENT FOR TREATMENT-RESISTANT CANCER” (NATIONAL UNIVERSITY CORPORATION HOKKAIDO UNIVERSITY, priority 2015, published 2018)
